31 compounds from ChEMBL document CHEMBL3727361, “Nitrogen bicyclic compounds as inhibitors for Scyl1 and Grk5” (2014) can be followed below.

Data set [1] is described as follows: Effect on insulin release in mouse BetaTC6 cells assessed as ratio of insulin release incubated for 2 hrs in presence of low glucose media by ELISA relative to DMSO. The format is cell-based. The settings on record: beta-tc6, 2 h. (ELISA stands for enzyme-linked immunosorbent assay.)
Data set [2] concerns the target T1, N-terminal kinase-like protein (Mus musculus) (UniProt Q9EQC5).
T1 sequence (whole entry): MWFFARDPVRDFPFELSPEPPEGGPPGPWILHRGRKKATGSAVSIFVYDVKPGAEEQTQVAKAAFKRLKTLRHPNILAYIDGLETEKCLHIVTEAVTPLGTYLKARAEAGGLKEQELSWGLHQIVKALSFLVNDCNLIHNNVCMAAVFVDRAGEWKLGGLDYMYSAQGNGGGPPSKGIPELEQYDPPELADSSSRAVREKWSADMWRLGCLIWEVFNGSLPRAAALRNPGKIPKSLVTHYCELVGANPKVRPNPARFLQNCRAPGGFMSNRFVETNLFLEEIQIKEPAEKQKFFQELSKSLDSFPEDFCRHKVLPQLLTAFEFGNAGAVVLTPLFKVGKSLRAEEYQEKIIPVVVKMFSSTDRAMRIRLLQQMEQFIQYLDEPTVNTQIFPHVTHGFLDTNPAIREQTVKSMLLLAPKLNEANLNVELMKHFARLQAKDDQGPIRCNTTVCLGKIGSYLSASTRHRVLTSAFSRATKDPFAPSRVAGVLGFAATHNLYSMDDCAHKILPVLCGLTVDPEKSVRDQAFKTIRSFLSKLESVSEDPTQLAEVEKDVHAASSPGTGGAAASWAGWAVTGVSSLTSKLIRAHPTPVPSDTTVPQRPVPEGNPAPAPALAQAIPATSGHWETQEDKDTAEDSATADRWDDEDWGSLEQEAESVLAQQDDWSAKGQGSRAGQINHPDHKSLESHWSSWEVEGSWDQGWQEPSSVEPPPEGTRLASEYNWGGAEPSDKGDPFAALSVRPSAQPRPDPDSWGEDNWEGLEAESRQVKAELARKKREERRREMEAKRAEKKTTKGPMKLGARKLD
The data set is described as follows: Inhibition of Scyl1 in mouse BetaTC6 cells assessed as increase in insulin release at 2 to 10 uM incubated for 2 hrs in presence of high glucose media by ELISA. The format is cell-based. The settings on record: Beta-TC6.

Data set [3] deals with Beta-TC6. The data set is described as follows: Increase in insulin release in mouse BetaTC6 cells assessed as relative insulin release activity at 10 uM incubated for 2 to 4 hrs by FRET based HTRF assay relative to sunitinib. Type of data set: functional. A general note: In TR-FRET formats the signal depends on donor and acceptor labels being close together.
The nature of data set [4]: Cytotoxic activity against mouse BetaTC6 cells assessed as inhibition of cell proliferation at 2 to 10 uM incubated for 72 hrs by MTT assay. Type of data set: cell-based. The settings on record: beta-tc6, 72 h. In general terms: Formazan colour is commonly taken as a measure of viable cells.
The subject of data set [5] is C2C12. Nature of the data set: Cytotoxic activity against mouse C2C12 cells assessed as inhibition of cell proliferation of at 2 uM incubated for 72 hrs by MTT assay. The format is cell-based. The settings on record: c2c12, 72 h.
For data set [6], the system named is C2C12. The data set is described as follows: Cytotoxic activity against mouse C2C12 cells assessed as inhibition of cell proliferation of at 2 to 10 uM incubated for 72 hrs by MTT assay. The format is cell-based. The settings on record: c2c12, 72 h.
A short description of data set [7]: Cytotoxic activity against mouse BetaTC6 cells assessed as inhibition of cell proliferation at 10 uM incubated for 72 hrs by MTT assay. The format is cell-based. The settings on record: beta-tc6, 72 h.
In data set [8] the target is RAC-alpha serine/threonine-protein kinase (Mus musculus) (UniProt P31750). Nature of the data set: Inhibition of Akt1 in mouse BetaTC6 cells assessed as increase in insulin release at 10 uM incubated for 2 hrs by ELISA. The format is cell-based. The settings on record: Beta-TC6. More on the design: scale not given: the % may be the effect or the level left.
Sequence of RAC-alpha serine/threonine-protein kinase (Mus musculus) (P31750 whole entry): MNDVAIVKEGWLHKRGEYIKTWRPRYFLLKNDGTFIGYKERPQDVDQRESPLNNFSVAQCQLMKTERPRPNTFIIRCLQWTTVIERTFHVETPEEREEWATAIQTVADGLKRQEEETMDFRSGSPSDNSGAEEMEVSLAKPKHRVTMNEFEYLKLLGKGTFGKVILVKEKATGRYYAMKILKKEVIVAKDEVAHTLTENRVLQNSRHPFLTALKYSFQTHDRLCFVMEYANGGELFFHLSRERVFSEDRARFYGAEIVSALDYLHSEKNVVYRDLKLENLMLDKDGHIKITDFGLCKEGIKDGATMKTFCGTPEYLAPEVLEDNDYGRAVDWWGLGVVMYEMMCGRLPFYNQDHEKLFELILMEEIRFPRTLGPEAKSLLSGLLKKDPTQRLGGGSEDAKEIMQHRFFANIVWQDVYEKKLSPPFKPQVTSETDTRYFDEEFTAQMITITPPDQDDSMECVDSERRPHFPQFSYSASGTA
Data set [9] addresses T1, N-terminal kinase-like protein (Mus musculus). Nature of the data set: Inhibition of Scyl1 in mouse BetaTC6 cells assessed as reduction in increase in insulin release at 5 uM incubated for 2 hrs by ELISA. Type of data set: cell-based. The settings on record: Beta-TC6.
Data set [10] concerns Beta-TC6. Nature of the data set: Increase in insulin release in mouse BetaTC6 cells at 5 uM incubated for 2 hrs by ELISA. The format is functional.
The target of data set [11] is T1, N-terminal kinase-like protein (Mus musculus). Nature of the data set: Inhibition of GRK5 in mouse C2C12 cells assessed as increase in 2-NBDG uptake at 5 uM after 1 hr relative to DMSO. Type of data set: cell-based.
For data set [12], the system named is Beta-TC6. Nature of the data set: Effect on insulin release in mouse BetaTC6 cells incubated for 2 hrs by ELISA. The format is functional, cell-based.

The structures appear in SMILES notation. Active and inactive are the calls of the source. No cut-off for these calls is given here.

A word on the inhibition: it is the share of the control response that was lost under treatment. `CC(=O)Nc1cccc(-c2ccc3ncc(-c4cccc(NC(C)=O)c4)n3n2)c1`: the Activity entry was “Non-toxic” in data set [1]; 20% with Beta-TC6 [3]; “Non-toxic” in data set [4]; “Non-toxic” in the data set on C2C12 [5]; “Toxic” with C2C12 [6]. In addition, the inhibition entry in [2] is “Dose-dependent effect”.
Regarding `CCN(CC)CCNC(=O)c1c(C)[nH]c(/C=C2\C(=O)Nc3ccc(F)cc32)c1C` [SUNITINIB], the Activity result in data set [7] is given as “Toxic”.
Consider `CCCCCCCCCCCCCCCCCCOC[C@H](COP(=O)(O)O[C@H]1[C@H](O)[C@@H](O)[C@H](O)C[C@H]1OC)OC`, for which the Activity in data set [8] worked out at 0.75%.
For `Cn1cc(-c2ccc3ncc(-c4cccs4)n3n2)cn1`, the Activity result in data set [1] is “Non-toxic”; in the data set on Beta-TC6 [3] it was 20%; with C2C12 [6] it was “Toxic”.
With `COc1ccc(-c2ccc3ncc(-c4ccncc4)n3n2)cc1OC`, the Activity result is reported as “Non-toxic” in data set [1]; 20% in the data set with Beta-TC6 [3]; “Non-toxic” with C2C12 [5]; “Toxic” in data set [7]; “Toxic” with C2C12 [6]. The inhibition result in data set [2] is “Dose-dependent effect”.
Consider `COc1cc(-c2ccc3ncc(-c4cccnc4)n3n2)cc(OC)c1OC`, for which the Activity entry was “Non-toxic” in data set [1]; 20% in the data set on Beta-TC6 [3]; “Non-toxic” in data set [4]; “Non-toxic” with C2C12 [5]; “Toxic” in the data set on C2C12 [6]. For the same compound, the inhibition was 100% in data set [9] and “Dose-dependent effect” in [2].
With `COc1ncc(-c2cc(NC(C)=O)c3ncc(-c4cccc(C(=O)N(C)C)c4)n3c2)c(OC)n1`, the Activity in the data set with Beta-TC6 [10] is -16.75%. Moreover, in data set [11], the fold change (FC) was 1.73.
On to `CCCCNC(=O)NS(=O)(=O)c1ccc(C)cc1`, for which, in the data set with Beta-TC6 [12], the outcome was inactive.
For the compound `NC(=O)c1ccc(-c2cnc3ccc(Cc4ccc(F)cc4)nn23)cc1`, the Activity in the data set with Beta-TC6 [3] is listed as 20%; in the data set with C2C12 [6] it was “Toxic”.
On to `COc1ccc(Cl)cc1C(=O)NCCc1ccc(S(=O)(=O)NC(=O)NC2CCCCC2)cc1`, for which the outcome in the data set with Beta-TC6 [12] was inactive.
As for `COc1cc(-c2ccc3ncc(-c4cccc(C(=O)NCCN(C)C)c4)n3n2)ccc1O`, the figures for the Activity in the data set on Beta-TC6 [3] and in the data set on C2C12 [6] were 10% and “Toxic”, respectively.
`COc1cc(-c2cnc3ccc(-c4cc(OC)c(OC)c(OC)c4)nn23)ccc1O`: the values for the Activity entry (in data set [1]; in the data set with Beta-TC6 [3]; with C2C12 [6]) were “Non-toxic”, 20% and “Toxic”, respectively. For the same compound, in data set [2], the inhibition result is “Dose-dependent effect”.
On to `CN(C)CCNC(=O)c1cccc(-c2cnc3ccc(-c4cccc(NS(C)(=O)=O)c4)nn23)c1`, for which the Activity entry is given as “Non-toxic” in data set [1], 20% with Beta-TC6 [3], “Toxic” in data set [7] and “Toxic” in the data set with C2C12 [6]. Moreover, the inhibition result in data set [2] is “Dose-dependent effect”.
Regarding `c1csc(-c2cnc3cnc(-c4cc5ccccc5s4)cn23)c1`, in the data set with Beta-TC6 [3], the Activity is listed as 50%.
Still for that read-out and setting: as for `CC(=O)Nc1cccc(-c2cn3c(-c4ccc(C(=O)N(C)C)cc4)cnc3cn2)c1`, the figure is 20%; as for `COc1cc(-c2nnc3ccc(-c4ccc(N5CCN(C)CC5)cc4)cn23)ccc1O`, 20%.
Regarding `NC(=O)c1ccc(-c2cnc3ccc(Cc4ccccc4)nn23)cc1`, the Activity is 20% with Beta-TC6 [3] and “Toxic” with C2C12 [6].
For `CC(=O)c1cccc(-c2cnc3cnc(-c4cccnc4)cn23)c1`, in the data set with Beta-TC6 [3], the Activity turned out to be 20%.
Same read-out and setting: as for `c1cnc2cc(-c3nnc4ccc(-c5ccoc5)cn34)ccc2n1`, the figure is 50%.
Still for that read-out and setting: as for `c1cnc2ccc(-c3ccc4nnc(-c5cscn5)n4c3)cc2c1`, the figure is 50%; as for `O=C(Cc1ccsc1)Nc1cnc2cnc(-c3ccccc3F)cn12`, 10%; as for `Oc1cccc(-c2cnc3ccc(-c4ccc(F)cc4)nn23)c1`, 20%.
Same read-out and setting: as for `CC(C)(C)c1ccc(-c2cnc3cnc(-c4ccc(N)nc4)cn23)cc1`, the figure is 10%; as for `CN(C)c1cccc(-c2cnc3cnc(-c4ccc(CO)cc4)cn23)c1`, 20%; as for `c1csc(-c2cn3c(-c4ccc5c(c4)OCO5)cnc3cn2)c1`, 50%.
Turning to `Fc1cccc(-c2cnc3cnc(-c4ccc(N5CCNCC5)cc4)cn23)c1`, the Activity in the data set on Beta-TC6 [3] stood at 10%.
Consider `c1csc(-c2ccc3nnc(-c4ccoc4)n3c2)c1`, for which the Activity with Beta-TC6 [3] is reported as 50%.
Still for that read-out and setting: as for `CN(C)CCNC(=O)c1ccc(-c2cn3c(-c4ccc(N(C)C)cc4)cnc3cn2)cc1`, the figure is 50%; as for `C(=C\c1cnc2cccnn12)/c1ccccc1`, 20%; as for `CC(=O)Nc1cccc(-c2cn3c(-c4ccc(F)c(Cl)c4)cnc3cn2)c1`, 20%.
As for `OCc1ccc(-c2cn3c(-c4cccc(F)c4)cnc3cn2)cc1`, the Activity with Beta-TC6 [3] turned out to be 20%.
